Publication PMC8288134, “Synthesis, potential antitumor activity, cell cycle analysis, and multitarget mechanisms of novel hydrazones incorporating a 4-methylsulfonylbenzene scaffold: a molecular docking study” (Journal of Enzyme Inhibition and Medicinal Chemistry, 2021)
Where two headings read alike, the source gives them in different places.

Tests used:
HCT-116 = assay: NCI antitumor screen (SRB); format: cell-based; conditions: Homo sapiens; for inhibition at 10 µM: read-out: Growth inhibition percentage (GI%)
TK-10 = assay: NCI antitumor screen (SRB); format: cell-based; conditions: Homo sapiens, one dose 10 µM, read-out: Growth inhibition percentage (GI%)
OVCAR-5 = assay: NCI antitumor screen (SRB); format: cell-based; conditions: Homo sapiens; for inhibition at 10 µM: one dose 10 µM, read-out: Growth inhibition percentage (GI%)
SNB-19 = assay: NCI antitumor screen (SRB); format: cell-based; conditions: Homo sapiens; for inhibition at 10 µM: one dose 10 µM, read-out: Growth inhibition percentage (GI%)
SK-OV-3 = assay: NCI antitumor screen (SRB); format: cell-based; conditions: Homo sapiens; for inhibition at 10 µM: one dose 10 µM, read-out: Growth inhibition percentage (GI%)
RXF 393 = assay: NCI antitumor screen (SRB); format: cell-based; conditions: Homo sapiens; for inhibition at 10 µM: one dose 10 µM, read-out: Growth inhibition percentage (GI%)
MDA-MB-435 = assay: NCI antitumor screen (SRB); format: cell-based; conditions: Homo sapiens; for inhibition at 10 µM: one dose 10 µM, read-out: Growth inhibition percentage (GI%)
SNB-75 = assay: NCI antitumor screen (SRB); format: cell-based; conditions: Homo sapiens; for inhibition at 10 µM: one dose 10 µM, read-out: Growth inhibition percentage (GI%)
MALME-3M = assay: NCI antitumor screen (SRB); format: cell-based; conditions: Homo sapiens; for inhibition at 10 µM: one dose 10 µM, read-out: Growth inhibition percentage (GI%)
UACC-62 = assay: NCI antitumor screen (SRB); format: cell-based; conditions: Homo sapiens; for inhibition at 10 µM: one dose 10 µM, read-out: Growth inhibition percentage (GI%)
SK-MEL-5 = assay: NCI antitumor screen (SRB); format: cell-based, human; conditions: for inhibition at 10 µM: read-out: Growth inhibition percentage (GI%)
HL60 cells = assay: Annexin V-FITC/PI apoptosis assay; format: cell-based, human; conditions: HL60, 10 µM, 24 h
Protocol: Apoptosis induction is the most important mechanism by which major chemotherapeutics kill cancer cells. Apoptosis causes cellular changes whereby the translocation of phosphatidylserine (PS) occurs through the plasma membrane from the inside to the outside. Annexin-V can bind to PS, which can be used as a sensitive probe for PS on the outer side of the plasma membrane. […] The AV/PI staining of HL60 cells was performed at a mixed molar concentration of 10 µM with compounds 6, 9, 16, and 20 for 24 h. Figure 4 and Table 5 show the results of treating HL60 cells with compounds 6, 9, 16, and 20 for 24 h.
According to our previous report, apoptosis induction was performed using the Leukaemia HL-60 cell line and well-established Annexin 5-FITC/PI detection kit. The cell line samples were analysed using FACSCalibur flow cytometer[40]^,[72]. […]
[(Ti-Tz)/Tz)] x 100 for concentration of which Ti ≤ Tz.
The induction of apoptosis was performed according to our previous report using Leukemia HL-
60 cell line and well-established Annexin 5-FITC/PI detection kit. The cell line samples were
analyzed using a FACSCalibur flow cytometer. […]

T-47D = assay: NCI antitumor screen (SRB); format: cell-based; conditions: Homo sapiens, T47D; for inhibition at 10 µM: one dose 10 µM, read-out: Growth inhibition percentage (GI%)
SW-620 = assay: NCI antitumor screen (SRB); format: cell-based; conditions: Homo sapiens; for inhibition at 10 µM: one dose 10 µM, read-out: Growth inhibition percentage (GI%)
UACC-257 = assay: NCI antitumor screen (SRB); format: cell-based, human; conditions: for inhibition at 10 µM: read-out: Growth inhibition percentage (GI%)
NCI-H460 = assay: NCI antitumor screen (SRB); format: cell-based; conditions: Homo sapiens; for inhibition at 10 µM: one dose 10 µM, read-out: Growth inhibition percentage (GI%)
OVCAR-4 = assay: NCI antitumor screen (SRB); format: cell-based; conditions: Homo sapiens; for inhibition at 10 µM: one dose 10 µM, read-out: Growth inhibition percentage (GI%)
NCI/ADR-RES = assay: NCI antitumor screen (SRB); format: cell-based; conditions: Homo sapiens; for inhibition at 10 µM: one dose 10 µM, read-out: Growth inhibition percentage (GI%)
PC-3 = assay: NCI antitumor screen (SRB); format: cell-based; conditions: Homo sapiens; for inhibition at 10 µM: one dose 10 µM, read-out: Growth inhibition percentage (GI%)
[1] = Homo sapiens, SK-MEL-5, one dose 10 µM
[2] = Homo sapiens, UACC-257, one dose 10 µM
[3] = five concentrations 0.01-100 µM

CS(=O)(=O)c1ccc(C(=O)N/N=C/c2ccccc2O)cc1 [Compound 16]
inhibition at 10 µM (HCT-116): 70.9% | inhibition at 10 µM (TK-10): 54.2% | inhibition at 10 µM (OVCAR-5): 35.3% | inhibition at 10 µM (SNB-19): 54.6% | inhibition at 10 µM (SK-OV-3): 60.1% | inhibition at 10 µM (RXF 393): 47% | inhibition at 10 µM (MDA-MB-435): 40.3% | inhibition at 10 µM (SNB-75): 22.3% | inhibition at 10 µM (MALME-3M): 36.5% | inhibition at 10 µM (UACC-62): 83.6% | inhibition at 10 µM (SK-MEL-5; [1]): 67.8% | Apoptosis, early (HL60 cells): 7.34% | Apoptosis, late (HL60 cells): 13.41% | Apoptosis, total (annexin V-FITC positive cells) (HL60 cells): 22.41% | Necrosis (HL60 cells): 1.66% | inhibition at 10 µM (T-47D): 47.6% | inhibition at 10 µM (SW-620): 56.7% | inhibition at 10 µM (UACC-257; [2]): 77.4% | inhibition at 10 µM (NCI-H460): 85.9% | inhibition at 10 µM (OVCAR-4): 56.3% | inhibition at 10 µM (NCI/ADR-RES): 70.1% | inhibition at 10 µM (PC-3): 45.7%

CCN(CC)c1ccc(/C=N/NC(=O)c2ccc(S(C)(=O)=O)cc2)c(O)c1 [Compound 20]
GI50 (HCT-116): 121 nM | inhibition at 10 µM (HCT-116): 81.6% | inhibition at 10 µM (TK-10): 69.5% | GI50 (OVCAR-5; [3]): 6480 nM | inhibition at 10 µM (OVCAR-5): 67.5% | GI50 (SNB-19; [3]): 428 nM | inhibition at 10 µM (SNB-19): 68% | GI50 (SK-OV-3; [3]): 251 nM | inhibition at 10 µM (SK-OV-3): 61% | GI50 (RXF 393; [3]): 271 nM | inhibition at 10 µM (RXF 393): 71.5% | GI50 (MDA-MB-435; [3]): 623 nM | inhibition at 10 µM (MDA-MB-435): 62.8% | GI50 (SNB-75; [3]): 228 nM | inhibition at 10 µM (SNB-75): 44.8% | GI50 (MALME-3M; [3]): 440 nM | inhibition at 10 µM (MALME-3M): 86% | GI50 (UACC-62; [3]): 234 nM | inhibition at 10 µM (UACC-62): > 100% | inhibition at 10 µM (SK-MEL-5; Homo sapiens, SK-MEL-5, SK-MEL-5, one dose 10 µM): 100% | GI50 (SK-MEL-5; Homo sapiens, SK-MEL-5, five concentrations 0.01-100 µM): 223 nM | Growth inhibition percentage (GI%) (SK-MEL-5; SK-MEL-5, one dose 10 µM): >100% | Apoptosis, early (HL60 cells): 8.42% | Apoptosis, late (HL60 cells): 12.66% | Apoptosis, total (annexin V-FITC positive cells) (HL60 cells): 24.31% | Necrosis (HL60 cells): 3.23% | GI50 (T-47D; [3]): 390 nM | inhibition at 10 µM (T-47D): 70% | GI50 (SW-620; [3]): 387 nM | inhibition at 10 µM (SW-620): 67% | inhibition at 10 µM (UACC-257; Homo sapiens, UACC-257, UACC-257, one dose 10 µM): 100% | GI50 (UACC-257; Homo sapiens, UACC-257, five concentrations 0.01-100 µM): 340 nM | Growth inhibition percentage (GI%) (UACC-257; UACC-257, one dose 10 µM): >100% | GI50 (NCI-H460; [3]): 113 nM | inhibition at 10 µM (NCI-H460): 96.7% | GI50 (OVCAR-4; [3]): 63 nM | inhibition at 10 µM (OVCAR-4): 65.3% | GI50 (NCI/ADR-RES; [3]): 324 nM | inhibition at 10 µM (NCI/ADR-RES): 82.2% | GI50 (PC-3; [3]): 319 nM | inhibition at 10 µM (PC-3): 50.8%

Cc1ccc(C=NNC(=O)c2ccc(S(C)(=O)=O)cc2)cc1 [Compound 9, N'-(4-Methylbenzylidene)-4-(methylsulfonyl)benzohydrazide]
inhibition at 10 µM (HCT-116): 13.9% | inhibition at 10 µM (TK-10): < 10% | inhibition at 10 µM (OVCAR-5): < 10% | inhibition at 10 µM (SNB-19): < 10% | inhibition at 10 µM (SK-OV-3): < 10% | inhibition at 10 µM (RXF 393): < 10% | inhibition at 10 µM (MDA-MB-435): 47.5% | inhibition at 10 µM (SNB-75): < 10% | inhibition at 10 µM (MALME-3M): 15.2% | inhibition at 10 µM (UACC-62): 19.1% | inhibition at 10 µM (SK-MEL-5; [1]): 13.5% | Apoptosis, early (HL60 cells): 5.66% | Apoptosis, late (HL60 cells): 9.04% | Apoptosis, total (annexin V-FITC positive cells) (HL60 cells): 16.89% | Necrosis (HL60 cells): 2.19% | inhibition at 10 µM (T-47D): < 10% | inhibition at 10 µM (SW-620): 15.2% | inhibition at 10 µM (UACC-257; [2]): 28.4% | inhibition at 10 µM (NCI-H460): < 10% | inhibition at 10 µM (OVCAR-4): < 10% | inhibition at 10 µM (NCI/ADR-RES): 14.6% | inhibition at 10 µM (PC-3): 26.9%

CS(=O)(=O)c1ccc(C(=O)NN=Cc2cccc3ccccc23)cc1 [Compound 6, 4-(Methylsulfonyl)-N'-(naphthalen-1-ylmethylene)benzohydrazide]
inhibition at 10 µM (HCT-116): 38.2% | inhibition at 10 µM (TK-10): 14.9% | inhibition at 10 µM (OVCAR-5): < 10% | inhibition at 10 µM (SNB-19): 20.2% | inhibition at 10 µM (SK-OV-3): 21.9% | inhibition at 10 µM (RXF 393): < 10% | inhibition at 10 µM (MDA-MB-435): 82.9% | inhibition at 10 µM (SNB-75): 10.3% | inhibition at 10 µM (MALME-3M): 30.3% | inhibition at 10 µM (UACC-62): 38.4% | inhibition at 10 µM (SK-MEL-5; [1]): 32.8% | Apoptosis, early (HL60 cells): 3.52% | Apoptosis, late (HL60 cells): 7.64% | Apoptosis, total (annexin V-FITC positive cells) (HL60 cells): 12.57% | Necrosis (HL60 cells): 1.41% | inhibition at 10 µM (T-47D): 14.7% | inhibition at 10 µM (SW-620): 63.8% | inhibition at 10 µM (UACC-257; [2]): 58.9% | inhibition at 10 µM (NCI-H460): 33.2% | inhibition at 10 µM (OVCAR-4): < 10% | inhibition at 10 µM (NCI/ADR-RES): 26.5% | inhibition at 10 µM (PC-3): 21.2%
